In PubChem BioAssay (NCI):
Several values for one entry are separate records, joined by “and”; a condition that tells them apart may be missing. Equal entries are not always repeated.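 Cells were grown in 96-well plates and exposed to each compound for 48 hours at five concentrations; endpoints were interpolated linearly between bracketing concentrations, or set to the highest concentration if not reached. GI50: concentration for 50% inhibition of growth. TGI: total growth inhibition.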

What was measured:
Experiment in all cases: NCI tumour cell line growth inhibition, 48 h
[1] = system: DMS 114 small cell lung
[2] = system: DMS 273 small cell lung
[3] = system: HOP-18 NSCLC
[4] = system: M19-MEL melanoma
[5] = system: RXF-631 renal
[6] = system: SNB-78 CNS
[7] = system: XF 498 CNS
[8] = system: KM20L2 colon
[9] = system: MDA-N
[10] = system: P388 leukemia
[11] = system: P388/ADR leukemia

SMILES	TGI [1]	TGI [2]	TGI [3]	TGI [4]	TGI [5]	TGI [6]	TGI [7]	GI50 [3]	GI50 [8]	TGI [8]	GI50 [4]	GI50 [6]	TGI [9]	GI50 [1]	GI50 [2]	GI50 [9]	TGI [10]	TGI [11]	GI50 [5]	GI50 [7]
COc1ccccc1NC(=O)C1=C(C)NC(C)=C(C(=O)Nc2ccccc2OC)C1c1ccccc1[N+](=O)[O-]	31.2 µM	34.9 µM	> 100 µM	49 µM	53.6 µM	> 100 µM	46.2 µM													
O=C1[C@@H]2C(c3ccc(Br)cc3)=NO[C@@H]2C(=O)N1c1ccc(Cc2ccc(N3C(=O)[C@H]4C(c5ccc(Br)cc5)=NO[C@H]4C3=O)cc2)cc1	> 3.48 µM	> 40 µM	> 40 µM	> 40 µM	> 40 µM	> 40 µM		> 40 µM	> 40 µM	> 40 µM	> 40 µM	> 40 µM								
CN=c1ss/c(=N\C(=S)N(C)C)n1C	> 100 µM	> 100 µM	> 100 µM	> 100 µM		> 100 µM	> 100 µM			> 100 µM										
Oc1ccc(Br)cc1C=Nc1cccc(C(F)(F)F)c1													> 100 µM							
COc1cc(C2c3cc4c(cc3[C@@H](NCCN(C)C)C3COC(=O)[C@H]23)OCO4)cc(OC)c1O (stereo not given in full)	0.533 µM and 2.11 µM	0.803 µM and 1.36 µM	2.63 µM and 6.98 µM	4.11 µM and 7.18 µM		68.3 µM and 77.8 µM	0.978 µM and 2.02 µM	0.108 µM and 0.428 µM	0.425 µM and 1.14 µM	2.16 µM and 3.62 µM		1.24 µM and 3.25 µM		0.0491 µM and 0.347 µM	0.0137 µM and 0.0329 µM					
Cc1ccccc1N=Nc1c(O)ccc2ccccc12													> 100 µM							
C[C@H]1CC[P+](Cc2ccccc2)(c2ccccc2)C1 (stereo not given in full)	> 100 µM	> 100 µM	> 100 µM	> 100 µM						> 100 µM										
O=C1CC2OCC=C3CN4CCC56c7ccccc7N1C5C2C3CC46O (stereo not given)													> 100 µM							
COc1ccc(-c2cc(=O)c3c(O)c(OC)c(OC)c(OC)c3o2)cc1OC													> 100 µM							
Nc1nncc2c1c(Br)cn2C1OC(CO)C(O)C1O (stereo not given)	62.6 µM	> 100 µM	> 100 µM	> 100 µM	> 100 µM	> 100 µM	> 100 µM			> 100 µM										
CN(C)CCNC(=O)c1cccc2c1nc(-c1ccc(F)cc1)c1ccccc12	19.2 µM	13 µM	27.4 µM	18.6 µM		25.7 µM														
CC(=O)C1CCN(c2ccccc2)C1 (stereo not given)	> 100 µM	> 100 µM		> 100 µM		> 100 µM	> 100 µM													
CC(C)(C)c1cc(CCC(=O)Nc2ccc(Cl)cc2)[nH]c(=S)n1	> 100 µM	> 100 µM	> 100 µM	> 100 µM	> 100 µM		> 100 µM			> 100 µM										
COC1C2C[C@@H](O)CCC2C(C(=O)OCCl)C[C@H]1O (stereo not given in full)	> 100 µM	> 100 µM	> 100 µM	> 100 µM	> 100 µM	> 100 µM				> 100 µM										
COC1=C(N)C(=O)c2nc(-c3nc(C(=O)O)c(C)c(-c4ccc(OC)c(OC)c4O)c3N)ccc2C1=O	0.0118 µM	0.0194 µM	0.0395 µM	0.0224 µM and 0.0234 µM		0.0324 µM and 0.0996 µM	0.0179 µM			1.12 µM and 0.184 µM			0.0269 µM and 0.0153 µM			0.0117 µM	0.473 µM	0.402 µM		
NC(=O)c1ccc2c(c1)-c1nc-2nc2[n-]c(nc3nc(nc4[n-]c(n1)c1ccc(C(N)=O)cc41)-c1ccc(C(N)=O)cc1-3)c1ccc(C(N)=O)cc21.[Co+2]	> 50 µM	> 50 µM	> 50 µM		> 50 µM	> 50 µM		> 50 µM	> 50 µM	> 50 µM		> 50 µM		19.6 µM	> 50 µM				> 50 µM	
COC(=O)NC1C(C)OC(OC2C/C=C(/C)C3C=CC4C(OC5CC(OC6CCC(OC7CC(O)C(OC8CCC(O)C(C)O8)C(C)O7)C(C)O6)C(OC(C)=O)C(C)O5)C(C)CC(C)C4C3(C)/C(O)=C3/C(=O)OC4(CC(C=O)=CC(O)C4/C=C\2C)C3=O)CC1(C)[N+](=O)[O-] (stereo not given)	1.76 µM and 0.494 µM	3.73 µM and 3.26 µM	14.5 µM and 3.62 µM	2.02 µM and 0.473 µM	10.8 µM	15.4 µM and 26.7 µM	0.5 µM and 2.06 µM		0.365 µM	3.68 µM and 1.42 µM	0.0982 µM	0.59 µM	3.52 µM	0.19 µM	0.414 µM		2.05 µM	17.3 µM		0.385 µM
NC1NC=NC2C1N=CN2C1OC(CO)C2[O][Sn][O]C21 (stereo not given)	> 100 µM	> 100 µM	> 100 µM	> 100 µM		> 100 µM	52.7 µM	> 100 µM	> 100 µM	> 100 µM	> 100 µM	> 100 µM		> 100 µM	> 100 µM					1.15 µM
CC(C)N(C(=O)C12C3C4C1C1C2C3C41C#N)C(C)C (stereo not given)	> 100 µM	> 100 µM	> 100 µM	> 100 µM	> 100 µM	> 100 µM	> 100 µM			> 100 µM										
